In ChEMBL document CHEMBL1681723, “Phellinstatin, a new inhibitor of enoyl-ACP reductase produced by the medicinal fungus Phellinus linteus” (Bioorg Med Chem Lett, 2011):
In brackets after ≈: the same amount, converted by molar mass. Activity calls are given as the source filed them. The calls are words filed in the database; no cut-off is given here.

Assays:
[1] = molecular target: T1, Enoyl-[acyl-carrier-protein] reductase [NADPH] FabI (Staphylococcus aureus, UniProt Q6GI75); test: (§1) Inhibition of Staphylococcus aureus enoyl-ACP reductase assessed as increase of NADPH level
T1 sequence (Q6GI75 whole entry): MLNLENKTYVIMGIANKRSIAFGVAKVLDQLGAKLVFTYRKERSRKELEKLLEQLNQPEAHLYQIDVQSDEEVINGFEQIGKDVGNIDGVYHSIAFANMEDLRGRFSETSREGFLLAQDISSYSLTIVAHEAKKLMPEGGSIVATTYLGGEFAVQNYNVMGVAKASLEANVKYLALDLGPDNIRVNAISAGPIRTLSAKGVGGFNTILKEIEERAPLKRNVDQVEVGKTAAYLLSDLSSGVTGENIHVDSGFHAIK

Staphylococcus aureus [2] = test: Antibacterial activity against Staphylococcus aureus RN4220 at 128 ug/ml; format: functional, organism-based
Staphylococcus aureus [3] = test: Antibacterial activity against methicillin-resistant Staphylococcus aureus CCARM 3167 at 128 ug/ml; format: functional, organism-based
[4] = molecular target: T2, Enoyl-[acyl-carrier-protein] reductase [NADPH] FabI (Staphylococcus aureus) (UniProt Q6GI75); test: as §1
T2 sequence (whole entry): T1 sequence (Q6GI75 whole entry)

Staphylococcus aureus [5] = test: Antibacterial activity against methicillin-resistant Staphylococcus aureus CCARM 3167; format: functional
Staphylococcus aureus [6] = test: Antibacterial activity against Staphylococcus aureus RN4220; format: functional

SMILES: O=c1cc(O)cc([C@H]2c3c(cc(/C=C/c4ccc(O)c(O)c4)oc3=O)O[C@@H]2c2ccc(O)c(O)c2)o1 [HYPHOLOMINE B]
- IC50 [1]: 15.3 µM
- Activity (Staphylococcus aureus [2]): inactive
- Activity (Staphylococcus aureus [3]): inactive

SMILES: O=c1cc(O)cc([C@H]2c3c(cc(/C=C/c4cc(O)c(O)cc4-c4c(O)cc(/C=C/c5ccc(O)c(O)c5)oc4=O)oc3=O)O[C@@H]2c2ccc(O)c(O)c2)o1 [PHELLINSTATIN]
- inhibition [4]: Dose-dependent effect
- IC50 [1]: 6 µM
- MIC (Staphylococcus aureus [5]): 128 µg/mL (≈ 174 µM)
- MIC (Staphylococcus aureus [6]): 128 µg/mL (≈ 174 µM)
